Experimental data as given in ChEMBL document CHEMBL2074166, “Transport of fluorescein in MDCKII-MRP1 transfected cells and mrp1-knockout mice” (Biochem Biophys Res Commun, 2001).

Molecular target: Multidrug resistance-associated protein 1 (Homo sapiens, UniProt P33527)
Experiment: TP_TRANSPORTER: intracellular accumulation in MRP1-expressing MDCKII cells
Type: functional, cell-based
Conditions: dog, mdck-ii

Multidrug resistance-associated protein 1, sequence (P33527 whole entry): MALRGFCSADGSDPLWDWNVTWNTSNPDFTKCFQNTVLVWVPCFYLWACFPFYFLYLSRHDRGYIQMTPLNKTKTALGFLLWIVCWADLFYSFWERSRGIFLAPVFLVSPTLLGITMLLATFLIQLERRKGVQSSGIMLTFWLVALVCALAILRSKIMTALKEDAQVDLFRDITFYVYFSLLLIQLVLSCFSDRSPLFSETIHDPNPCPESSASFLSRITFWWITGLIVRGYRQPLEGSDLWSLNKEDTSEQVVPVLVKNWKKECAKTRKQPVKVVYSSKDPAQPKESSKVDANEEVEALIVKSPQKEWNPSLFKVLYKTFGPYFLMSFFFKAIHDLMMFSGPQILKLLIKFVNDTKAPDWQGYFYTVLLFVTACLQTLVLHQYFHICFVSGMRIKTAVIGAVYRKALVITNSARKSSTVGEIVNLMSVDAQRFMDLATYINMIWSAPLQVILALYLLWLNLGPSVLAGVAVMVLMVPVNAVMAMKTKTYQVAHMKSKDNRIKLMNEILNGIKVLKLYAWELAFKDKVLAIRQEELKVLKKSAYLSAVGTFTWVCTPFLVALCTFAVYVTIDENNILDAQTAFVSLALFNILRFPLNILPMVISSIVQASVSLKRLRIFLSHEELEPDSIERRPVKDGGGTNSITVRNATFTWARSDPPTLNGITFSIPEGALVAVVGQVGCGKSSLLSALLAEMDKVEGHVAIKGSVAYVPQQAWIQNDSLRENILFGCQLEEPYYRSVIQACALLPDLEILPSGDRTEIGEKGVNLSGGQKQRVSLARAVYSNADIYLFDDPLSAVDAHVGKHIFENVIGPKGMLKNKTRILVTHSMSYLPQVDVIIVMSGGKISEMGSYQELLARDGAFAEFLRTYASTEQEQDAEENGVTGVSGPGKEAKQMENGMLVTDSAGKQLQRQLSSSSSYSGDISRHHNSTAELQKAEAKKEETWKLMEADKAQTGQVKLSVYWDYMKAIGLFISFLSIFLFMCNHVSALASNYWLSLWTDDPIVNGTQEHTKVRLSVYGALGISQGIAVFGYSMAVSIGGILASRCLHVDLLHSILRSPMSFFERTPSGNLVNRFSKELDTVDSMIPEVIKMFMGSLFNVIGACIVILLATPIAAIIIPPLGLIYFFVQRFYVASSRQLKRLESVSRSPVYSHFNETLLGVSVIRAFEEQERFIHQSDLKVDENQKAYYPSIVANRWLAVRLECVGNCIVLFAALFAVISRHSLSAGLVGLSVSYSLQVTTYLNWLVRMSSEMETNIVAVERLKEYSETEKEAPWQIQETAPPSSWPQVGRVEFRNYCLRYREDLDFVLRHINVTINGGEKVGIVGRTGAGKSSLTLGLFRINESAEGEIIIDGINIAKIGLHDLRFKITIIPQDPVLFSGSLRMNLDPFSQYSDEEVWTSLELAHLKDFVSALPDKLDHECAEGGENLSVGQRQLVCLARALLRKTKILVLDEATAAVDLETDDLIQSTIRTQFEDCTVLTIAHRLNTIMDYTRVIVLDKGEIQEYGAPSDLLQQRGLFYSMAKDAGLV

- Activity: substrate [+]
Structure (SMILES): O=C1OC2(c3ccc(O)cc3Oc3cc(O)ccc32)c2ccccc21 [FLUORESCEIN]
